Experiments:
Assay type in all cases: cell-based, Pseudomonas aeruginosa
[1] = system: P. aeruginosa strain PAR 50; experiment: Number of viable bacteria in early and mature biofilm (viable count)
Protocol: (§1) Biofilm formation and the number of viable bacteria were checked in parallel in the following time intervals: 0, 0.5, 8, 24, 48 hours, in accordance with the procedure described above. Biofilm thickness was estimated by staining it with Cango Red and measuring optical density while number of viable bacteria was performed using the standard viable count method. (Allison G C, Sutherland I W. A staining technique for bacteria and its correlation to extracellular carbohydrate production. J Microbiol Meth 2, 93-99 (1984)).
(§2) After the addition of iminosugars (compounds 1, 2, 3 and 4), the biofilm formation and the number of viable bacteria were checked in the following time intervals: 48, 48.5, 56, 72, 96 hours.
(§3) Numbers of viable bacteria contained in the early and mature biofilm were estimated on separate plates with wells filled with tested P. aeruginosa strains as described above (PAR 5, PAR 20, PAR 50).
(§4) At the same time intervals, biofilm content in each well was removed and mixed by multiple pippeting and transferred to sterile tubes. Then decimal dilutions of the bacterial suspension were made in TSB broth, plated on McConkey Agar (Oxoid), and incubated at 37° C. for 24 hours.
(§5) Numbers of colonies grown on platter were counted and total numbers of the viable bacteria calculated as colony forming units (CFU) per ml.
(§6) The results depict logs of CFU/ml for three P. aeruginosa strains: PAR 5, PAR 20 and PAR 50 measured at different time intervals (0 hours, 8 hours, 24 hours, 48 hours, 56 hours, 72 hours and 96 hours). The detection limit is 100 CFU/ml.

[2] = system: P. aeruginosa strain PAR 5; experiment: as above
Protocol: as §1, §2, §3, §4, §5, §6

[3] = system: P. aeruginosa strain PAR 20; experiment: as above
Protocol: as §1, §2, §3, §4, §5, §6

[4] = system: P. aeruginosa strain PAR 50 biofilm; experiment: Early biofilm model, Congo red staining; settings: for absorbance (Congo red, biofilm formation): early biofilm, 0.9 mM, 492 nm
Protocol: (§7) P. aeruginosa biofilm was set-up in sterile plastic 96-well plates with adherent surface (Greiner Bio-One, USA).
(§8) Twenty microliter quantities of the bacterial stock suspensions, prepared as described above, were added to each well followed with 180 μl of sterile TSB. Final concentration of the bacteria was 1×10^8 CFU/ml.
(§9) The plates were centrifuged for 10 minutes at 2000 rpm to sediment bacteria on the bottom of each well and then incubated for 72 hours (37° C., aerobic conditions).
(§10) Biofilm quantity was determined using Congo red dye according to a modified procedure described by Allison et al. (Allison G C, Sutherland I W. A staining technique for bacteria and its correlation to extracellular carbohydrate production. J Microbiol Meth 2, 93-99 (1984)).
(§11) Briefly, at different time points (0, 6, 18, 24, 48 and 72 hours), the culture medium was gently removed from wells by using the pipette and immediately 200 μl of 0.1% Congo red solution was added. The plates were left for 30 minutes at room temperature and then 10 minutes before the end of staining, the plate was centrifuged for 10 minutes at 2000 rpm and then washed twice with buffered saline to remove unbound dye. Absorbance was measured at λ=492 nm wavelength using spectrophotometer (Awarness Technology Inc., Palm City, Fla., USA). All measurements were performed in triplicates and mean values±SD are given.
(§12) Early biofilm model: formation of early biofilm under influence of the tested substances was observed by filling wells of a 96-well plate with 20 μl of P. aeruginosa suspension and 180 μl of TSB, as described above. Tested iminosugars (compounds 1, 2, 3 and 4) were added immediately after setting-up the bacteria at a final concentration of 0.9 mM. Then, the plate was gently mixed and incubated for 48 hours at 37° C.
as §1
(§13) P. aeruginosa suspension cultures in TSB broth alone were used as a control.

[5] = system: P. aeruginosa strain PAR 5 biofilm; experiment: Early biofilm model, Congo red staining; settings: for absorbance (Congo red, biofilm formation): 0.9 mM, 492 nm
Protocol: as §7, §8, §9, §10, §11, §12, §1, §13

[6] = system: P. aeruginosa strain PAR 20 biofilm; experiment: Early biofilm model, Congo red staining; settings: for absorbance (Congo red, biofilm formation): early biofilm, 0.9 mM, 492 nm
Protocol: as §7, §8, §9, §10, §11, §12, §1, §13

[7] = system: P. aeruginosa strain PAR 50 biofilm; experiment: Reduction of biofilm growth (percent vs culture control)
Description: (§14) FIG. 4C represents the effect of the tested compounds (1, 2, 3 and 4) on exopolysaccharide biosynthesis in the early stages and mature P. aeruginosa biofilm formation, strain PAR 50. The abscissa represents the time (in hours) in order to differentiate early biofilm and mature biofilm, and the ordinate represents the percentage of the biofilm reduction.
as §12
(§15) Mature biofilm model: the tested substances were added 48 hours after adherence of bacteria to the wells in a 96-well plate. The growth conditions of P. aeruginosa were exactly the same, as described above for the early biofilm model.
(§16) The effect of the tested compounds (1, 2, 3 and 4) on the reduction of biofilm growth has also been studied on the three P. aeruginosa strains PAR 5, PAR 20, PAR 50.
(§17) (Percent decrease in biofilm thickness was obtained as a mean value from 3 consecutive measurements of the Congo Red stained biofilm using spectrophotometer after addition of the tested iminosugars in comparison to control regarded as 100%).

[8] = system: P. aeruginosa strain PAR 5 biofilm; experiment: as above
Description: as §14, with “4A” for “4C”, “5.” for “50.”
as §12, §15, §16, §17

[9] = system: P. aeruginosa strain PAR 50 biofilm; experiment: Mature biofilm model, Congo red staining; settings: for absorbance (Congo red, biofilm development): mature biofilm, compound added 48 h after induction of biofilm
Protocol: as §10, §11, §15, §2

[10] = system: P. aeruginosa strain PAR 5 biofilm; experiment: Mature biofilm model, Congo red staining; settings: for absorbance (Congo red, biofilm development): mature biofilm, compound added 48 h after induction of biofilm
Protocol: as §10, §11, §15, §2

[11] = system: P. aeruginosa strain PAR 20 biofilm; experiment: Mature biofilm model, Congo red staining; settings: for absorbance (Congo red, biofilm development): mature biofilm, compound added 48 h after induction of biofilm
Protocol: as §10, §11, §15, §2

[12] = system: P. aeruginosa strain PAR 20 biofilm; experiment: Reduction of biofilm growth (percent vs culture control)
Description: as §14, with “4B” for “4C”, “20.” for “50.”
as §12, §15, §16, §17

[13] = in comparison with culture control

**Q.** How did the “number of viable P. aeruginosa” value ([1]; early biofilm, 0 h) turn out when `CCC[C@H]1N[C@@H](CO)[C@H](O)[C@H]1O` [Compound 4, β-1-C-propyl-1,4-dideoxy-1,4-imino-L-arabinitol] was run?
**A.** 1 × 10^7 CFU/ml

**Q.** And the “number of viable P. aeruginosa” value ([1]; early biofilm, 8 h)?
**A.** 2 × 10^8 CFU/ml

**Q.** And the “number of viable P. aeruginosa” value ([1]; early biofilm, 24 h)?
**A.** 7 × 10^8 CFU/ml

**Q.** And the “number of viable P. aeruginosa” value ([1]; early biofilm, 48 h)?
**A.** 1 × 10^8 CFU/ml

**Q.** And the “number of viable P. aeruginosa” value ([1]; mature biofilm, 56 h)?
**A.** 3 × 10^9 CFU/ml

**Q.** And the “number of viable P. aeruginosa” value ([1]; mature biofilm, 72 h)?
**A.** 9 × 10^9 CFU/ml

**Q.** What about the “number of viable P. aeruginosa” value ([1]; mature biofilm, 96 h) of the same molecule?
**A.** 1 × 10^9 CFU/ml

**Q.** And the “number of viable P. aeruginosa” value ([2]; early biofilm, 0 h)?
**A.** 9 × 10^6 CFU/ml

**Q.** And the “number of viable P. aeruginosa” value ([2]; early biofilm, 8 h)?
**A.** 3 × 10^6 CFU/ml

**Q.** What about the “number of viable P. aeruginosa” value ([2]; early biofilm, 24 h) of the same molecule?
**A.** 9 × 10^7 CFU/ml

**Q.** And the “number of viable P. aeruginosa” value ([2]; early biofilm, 48 h)?
**A.** 3 × 10^7 CFU/ml

**Q.** What about the “number of viable P. aeruginosa” value ([2]; mature biofilm, 56 h) of the same molecule?
**A.** 4 × 10^8 CFU/ml

**Q.** And the “number of viable P. aeruginosa” value ([2]; mature biofilm, 72 h)?
**A.** 3 × 10^8 CFU/ml

**Q.** And the “number of viable P. aeruginosa” value ([2]; mature biofilm, 96 h)?
**A.** 2 × 10^9 CFU/ml

**Q.** What about the “number of viable P. aeruginosa” value ([3]; early biofilm, 0 h) of the same molecule?
**A.** 5 × 10^6 CFU/ml

**Q.** And the “number of viable P. aeruginosa” value ([3]; early biofilm, 8 h)?
**A.** 2 × 10^7 CFU/ml

**Q.** And the “number of viable P. aeruginosa” value ([3]; early biofilm, 24 h)?
**A.** 4 × 10^8 CFU/ml

**Q.** And the “number of viable P. aeruginosa” value ([3]; early biofilm, 48 h)?
**A.** 3 × 10^9 CFU/ml

**Q.** And the “number of viable P. aeruginosa” value ([3]; mature biofilm, 56 h)?
**A.** 9 × 10^8 CFU/ml

**Q.** What about the “number of viable P. aeruginosa” value ([3]; mature biofilm, 72 h) of the same molecule?
**A.** 8 × 10^7 CFU/ml

**Q.** What about the “number of viable P. aeruginosa” value ([3]; mature biofilm, 96 h) of the same molecule?
**A.** 4 × 10^8 CFU/ml

**Q.** And the “absorbance (Congo red, biofilm formation)” value ([4]; 8 hours)?
**A.** about 0.8 a.u.

**Q.** And the “absorbance (Congo red, biofilm formation)” value ([4]; 24 hours)?
**A.** about 1.4 a.u.

**Q.** What about the “absorbance (Congo red, biofilm formation)” value ([4]; 48 hours) of the same molecule?
**A.** about 0.9 a.u.

**Q.** And the “effect on formation of an early biofilm” value [4, 13]?
**A.** inhibit the formation of an early biofilm

**Q.** What about the “biofilm formation at 8 hours, 24 hours and 48 hours” value ([5]; early biofilm) of the same molecule?
**A.** no biofilm formation

**Q.** And the “absorbance (Congo red, biofilm formation)” value ([5]; early biofilm, 8 hours)?
**A.** about 0.25 a.u.

**Q.** What about the “absorbance (Congo red, biofilm formation)” value ([5]; early biofilm, 24 hours) of the same molecule?
**A.** about 0.25 a.u.

**Q.** And the “absorbance (Congo red, biofilm formation)” value ([5]; early biofilm, 48 hours)?
**A.** about 0.25 a.u.

**Q.** And the “effect on formation of an early biofilm” value [5, 13]?
**A.** inhibit the formation of an early biofilm

**Q.** What about the “absorbance (Congo red, biofilm formation)” value ([6]; 8 hours) of the same molecule?
**A.** about 0.6 a.u.

**Q.** What about the “absorbance (Congo red, biofilm formation)” value ([6]; 24 hours) of the same molecule?
**A.** about 1.0 a.u.

**Q.** What about the “absorbance (Congo red, biofilm formation)” value ([6]; 48 hours) of the same molecule?
**A.** about 0.75 a.u.

**Q.** And the “effect on formation of an early biofilm” value [6, 13]?
**A.** inhibit the formation of an early biofilm

**Q.** What about the “reduction of biofilm growth” value ([7]; 8 hours of incubation) of the same molecule?
**A.** about 60%

**Q.** What about the “reduction of biofilm growth” value ([7]; 24 hours of incubation) of the same molecule?
**A.** about 35%

**Q.** And the “reduction of biofilm growth” value ([7]; 48 hours of incubation)?
**A.** about 45%

**Q.** What about the “reduction of biofilm growth” value ([7]; 72 hours of incubation) of the same molecule?
**A.** about 30%

**Q.** What about the “effect on biofilm growth” value ([7]; notably an early biofilm) of the same molecule?
**A.** can reduce the biofilm growth

**Q.** And the “reduction of biofilm growth” value ([8]; 8 hours of incubation)?
**A.** about 90%

**Q.** And the “reduction of biofilm growth” value ([8]; 24 hours of incubation)?
**A.** about 90%

**Q.** What about the “reduction of biofilm growth” value ([8]; 48 hours of incubation) of the same molecule?
**A.** about 25%

**Q.** What about the “reduction of biofilm growth” value ([8]; 72 hours of incubation) of the same molecule?
**A.** about 10%

**Q.** And the “effect on biofilm growth” value ([8]; notably an early biofilm)?
**A.** can reduce the biofilm growth

**Q.** And the “influence on mature biofilm formation” value [9]?
**A.** weak influence

**Q.** And the “absorbance (Congo red, biofilm development)” value ([9]; 48 hours)?
**A.** about 1.4 a.u.

**Q.** And the “absorbance (Congo red, biofilm development)” value ([9]; 56 hours)?
**A.** about 1.4 a.u.

**Q.** What about the “absorbance (Congo red, biofilm development)” value ([9]; 72 hours) of the same molecule?
**A.** about 1.5 a.u.

**Q.** What about the “absorbance (Congo red, biofilm development)” value ([9]; 96 hours) of the same molecule?
**A.** about 1.75 a.u.

**Q.** What about the “influence on mature biofilm formation” value [10] of the same molecule?
**A.** weak influence

**Q.** What about the “absorbance (Congo red, biofilm development)” value ([10]; 48 hours) of the same molecule?
**A.** about 0.5 a.u.

**Q.** And the “absorbance (Congo red, biofilm development)” value ([10]; 56 hours)?
**A.** about 1.25 a.u.

**Q.** What about the “absorbance (Congo red, biofilm development)” value ([10]; 72 hours) of the same molecule?
**A.** about 1.25 a.u.

**Q.** What about the “absorbance (Congo red, biofilm development)” value ([10]; 96 hours) of the same molecule?
**A.** about 0.5 a.u.

**Q.** And the “influence on mature biofilm formation” value [11]?
**A.** weak influence

**Q.** And the “absorbance (Congo red, biofilm development)” value ([11]; 48 hours)?
**A.** about 0.5 a.u.

**Q.** And the “absorbance (Congo red, biofilm development)” value ([11]; 56 hours)?
**A.** about 0.75 a.u.

**Q.** And the “absorbance (Congo red, biofilm development)” value ([11]; 72 hours)?
**A.** about 1.25 a.u.

**Q.** And the “absorbance (Congo red, biofilm development)” value ([11]; 96 hours)?
**A.** about 1.75 a.u.

**Q.** And the “reduction of biofilm growth” value ([12]; 8 hours of incubation)?
**A.** about 60%

**Q.** And the “reduction of biofilm growth” value ([12]; 24 hours of incubation)?
**A.** about 35%

**Q.** And the “reduction of biofilm growth” value ([12]; 48 hours of incubation)?
**A.** about 45%

**Q.** And the “reduction of biofilm growth” value ([12]; 72 hours of incubation)?
**A.** about 0%

**Q.** What about the “effect on biofilm growth” value ([12]; notably an early biofilm) of the same molecule?
**A.** can reduce the biofilm growth
